The text below walks through data of US12384789B2, “Compounds for treating Huntington's disease” (PTC Therapeutics, Inc., priority 2017, dated 2025).

What is called IC50 is the concentration that inhibits the measured activity by half.

In this assay the test system is Endogenous Huntingtin Protein. In words: Endogenous Huntingtin Protein Assay (Meso Scale Discovery ELISA-based electrochemiluminescence). The note with it: MSD electrochemiluminescence, Table 1. Type of assay: cell-based. A digest of the protocol:
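MSD electrochemiluminescence sandwich ELISA: MW1 (expanded polyQ) or MAB2166 capture antibody at 1 μg/mL, samples incubated overnight at 4° C. Detection with rabbit monoclonal #5656S then SULFO-TAG anti-rabbit antibody, each 0.25 μg/mL for 1 h at room temperature.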
On to `Cc1cn2nc(-c3cc(F)c4cc(N5C[C@@H]6[C@H](C5)[C@H]6N(C)C)nnc4c3)cc(C)c2n1` [Compound 223, (1R,5S,6s)-3-[7-(2,8-dimethylimidazo[1,2-b]pyridazin-6-yl)-5-fluorocinnolin-3-yl]-N,N-dimethyl-3-azabicyclo[3.1.0]hexan-6-amine], for which the IC50 is at most 100 nM.

`Cc1nc2c(C)cc(-c3cc(F)c4cc(C5CCNCC5)nnc4c3)cc2s1` [Compound 118, 7-(2,4-dimethyl-1,3-benzothiazol-6-yl)-5-fluoro-3-(piperidin-4-yl)cinnoline] registered a concentration for half-maximal inhibition (IC50) of 100 to 500 nM.

`Cc1cc2oc(-c3cc(F)c4cc(C5CCN(CCO)CC5)nnc4c3)nc2c(C)n1` [Compound 213, 2-{4-[7-(4,6-dimethyl[1,3]oxazolo[4,5-c]pyridin-2-yl)-5-fluorocinnolin-3-yl]piperidin-1-yl}ethan-1-ol] gave an IC50 of 100 to 500 nM.

For `CCN1CCC(c2cc3c(F)cc(-c4cc(C)c5nc(C)oc5n4)cc3nn2)CC1` [Compound 152, 7-(2,7-dimethyl[1,3]oxazolo[5,4-b]pyridin-5-yl)-3-(1-ethylpiperidin-4-yl)-5-fluorocinnoline], the IC50 is at most 100 nM.

In the case of `Cc1cc(-c2cc(F)c3cc(C4C[C@@H](C)N(C)[C@@H](C)C4)nnc3c2)nc2cn(C)nc12` (stereo partly drawn) [Compound 227, 7-(2,7-dimethyl-2H-pyrazolo[4,3-b]pyridin-5-yl)-5-fluoro-3-((2S,4R,6R)-1,2,6-trimethylpiperidin-4-yl)cinnoline], the IC50 is at most 100 nM.

Compound `CC[C@H]1CC(c2cc3c(F)cc(-c4cc(C)c5nc(C)cn5n4)cc3nn2)C[C@H](CC)N1` (stereo partly drawn) [Compound 130, 3-[(2S,6S)-2,6-diethylpiperidin-4-yl]-7-(2,8-dimethylimidazo[1,2-b]pyridazin-6-yl)-5-fluorocinnoline] came in with an IC50 of at most 100 nM.

As to `Cn1cc2cc(-c3ccc4nc(C5CCNCC5)cnc4c3)cc(C(F)(F)F)c2n1` [Compound 24, 6-[2-methyl-7-(trifluoromethyl)-2H-indazol-5-yl]-2-(piperidin-4-yl)quinoxaline], the IC50 lay within 100 to 500 nM.

`Cc1cn2nc(-c3cc(F)c4cc(C5CCNCC5)nnc4c3)cc(OCCn3cccn3)c2n1` [Compound 140, 5-fluoro-7-{2-methyl-8-[2-(1H-pyrazol-1-yl)ethoxy]imidazo[1,2-b]pyridazin-6-yl}-3-(piperidin-4-yl)cinnoline]: the IC50 is at most 100 nM.

Compound `Cc1cn2nc(-c3cc(F)c4cc(C5CCNCC5)nnc4c3)cc(-n3ccnc3)c2n1` [Compound 194, 5-fluoro-7-[8-(1H-imidazol-1-yl)-2-methylimidazo[1,2-b]pyridazin-6-yl]-3-(piperidin-4-yl)cinnoline] displayed an IC50 of 100 to 500 nM.

In the case of `CCN1CCC(c2cc3c(F)cc(-c4cn5cc(C)nc(C)c5n4)cc3nn2)CC1` [Compound 119, 7-(6,8-dimethylimidazo[1,2-a]pyrazin-2-yl)-3-(1-ethylpiperidin-4-yl)-5-fluorocinnoline], the IC50 was in the range of 500 to 1000 nM.

`Cn1cc2cc(-c3ncc4cc(C5=CCNCC5)cc(F)c4n3)cc(F)c2n1` [Compound 165, 8-fluoro-2-(7-fluoro-2-methyl-2H-indazol-5-yl)-6-(1,2,3,6-tetrahydropyridin-4-yl)quinazoline] yielded an IC50 of at most 100 nM.

The compound `Cc1cc2sc(-c3cc(F)c4cc(C5CCNCC5)nnc4c3)nc2c(C)n1` [Compound 149, 7-(4,6-dimethyl[1,3]thiazolo[4,5-c]pyridin-2-yl)-5-fluoro-3-(piperidin-4-yl)cinnoline] registered an IC50 of at most 100 nM.

On to `Cc1cc(-c2cc(F)c3nc(C4CCNCC4)ccc3c2)cc2cn(C)nc12` [Compound 20, 6-(2,7-dimethyl-2H-indazol-5-yl)-8-fluoro-2-(piperidin-4-yl)quinoline], for which the IC50 was at most 100 nM.

For the compound `CCN1CCC(c2cc3c(F)cc(-c4cc(OC)c5nn(C)cc5n4)cc3nn2)CC1` [Compound 173, 3-(1-ethylpiperidin-4-yl)-5-fluoro-7-(7-methoxy-2-methyl-2H-pyrazolo[4,3-b]pyridin-5-yl)cinnoline], the IC50 was at most 100 nM.

Take `CCN1CC=C(c2cc(F)c3cc(-c4cc(F)c5nn(C)cc5c4)nnc3c2)CC1` [Compound 153, 7-(1-ethyl-1,2,3,6-tetrahydropyridin-4-yl)-5-fluoro-3-(7-fluoro-2-methyl-2H-indazol-5-yl)cinnoline]: the concentration for half-maximal inhibition (IC50) was at most 100 nM.

With `Cc1cn2nc(-c3ccc4cc(C5CCNCC5)nnc4c3)cc(C)c2n1` [Compound 84, 7-(2,8-dimethylimidazo[1,2-b]pyridazin-6-yl)-3-(piperidin-4-yl)cinnoline], the IC50 is at most 100 nM.

The compound `CCN1CCC(c2cc(F)c3cc(-c4cc(F)c5nn(C)cc5c4)nnc3c2)CC1` [Compound 154, 7-(1-ethylpiperidin-4-yl)-5-fluoro-3-(7-fluoro-2-methyl-2H-indazol-5-yl)cinnoline] had an IC50 of at most 100 nM.

As to `Cc1cn2nc(-c3cc(F)c4cc(C5CCNCC5)nnc4c3)cc(C)c2n1` [Compound 74, 7-(2,8-dimethylimidazo[1,2-b]pyridazin-6-yl)-5-fluoro-3-(piperidin-4-yl)cinnoline], the IC50 is at most 100 nM.

`Cc1cn2nc(-c3cc(F)c4cc(N5C[C@@H](C)N[C@@H](C)C5)nnc4c3)cc(C)c2n1` [Compound 81, 7-(2,8-dimethylimidazo[1,2-b]pyridazin-6-yl)-3-[(3R,5S)-3,5-dimethylpiperazin-1-yl]-5-fluorocinnoline] gave an IC50 of at most 100 nM.

The compound `Cc1cn2cc(-c3nnc4cc(C5CCNCC5)cc(F)c4n3)cc(F)c2n1` [Compound 41, 5-fluoro-3-(8-fluoro-2-methylimidazo[1,2-a]pyridin-6-yl)-7-(piperidin-4-yl)-1,2,4-benzotriazine] displayed an IC50 of 100 to 500 nM.

Compound `Cn1cc2cc(-c3cc(F)c4nc(C5CCNCC5)ncc4c3)cc(F)c2n1` [Compound 36, 8-fluoro-6-(7-fluoro-2-methyl-2H-indazol-5-yl)-2-(piperidin-4-yl)quinazoline] showed an IC50 of at most 100 nM.

Consider `CCN1CCC(c2cnc3cc(-c4cc(C)c5nc(C)cn5n4)cc(F)c3n2)CC1` [Compound 110, 6-(2,8-dimethylimidazo[1,2-b]pyridazin-6-yl)-2-(1-ethylpiperidin-4-yl)-8-fluoroquinoxaline], for which the IC50 is at most 100 nM.

With `CCN1CCC(c2cc3c(F)cc(-c4ccc5nc(C)cn5n4)cc3nn2)CC1` [Compound 100, 3-(1-ethylpiperidin-4-yl)-5-fluoro-7-(2-methylimidazo[1,2-b]pyridazin-6-yl)cinnoline], the IC50 was at most 100 nM.

`CCN1CCC(c2cc3c(F)cc(-c4nc5c(C)nc(C)cc5o4)cc3nn2)CC1` [Compound 136, 7-(4,6-dimethyl[1,3]oxazolo[4,5-c]pyridin-2-yl)-3-(1-ethylpiperidin-4-yl)-5-fluorocinnoline] yielded an IC50 of at most 100 nM.

With `CCN1CC=C(c2cc(F)c3nc(-c4cc(F)c5nn(C)cc5c4)ncc3c2)CC1` [Compound 201, 6-(1-ethyl-1,2,3,6-tetrahydropyridin-4-yl)-8-fluoro-2-(7-fluoro-2-methyl-2H-indazol-5-yl)quinazoline], the IC50 was at most 100 nM.

Take `Cc1nc2ccc(-c3cc(F)c4cc(C5CCNCC5)nnc4c3)cn2n1` [Compound 94, 5-fluoro-7-(2-methyl[1,2,4]triazolo[1,5-a]pyridin-6-yl)-3-(piperidin-4-yl)cinnoline]: the IC50 is 100 to 500 nM.

`CCN1CCC(c2cc3c(F)cc(-c4cc(C#N)c5nc(C)cn5n4)cc3nn2)CC1` [Compound 114, 6-[3-(1-ethylpiperidin-4-yl)-5-fluorocinnolin-7-yl]-2-methylimidazo[1,2-b]pyridazine-8-carbonitrile] registered an IC50 of at most 100 nM.

Compound `Cc1cn2nc(-c3cc(F)c4cc(C5CCNCC5)nnc4c3)cc(C(C)C)c2n1` [Compound 211, 5-fluoro-7-[2-methyl-8-(propan-2-yl)imidazo[1,2-b]pyridazin-6-yl]-3-(piperidin-4-yl)cinnoline] displayed an IC50 of at most 100 nM.

Regarding `Cc1cc(-c2ccc3cc(C4CCNCC4)ncc3c2)cc2cn(C)nc12` [Compound 30, 7-(2,7-dimethyl-2H-indazol-5-yl)-3-(piperidin-4-yl)isoquinoline], the IC50 was 100 to 500 nM.

As to `Cc1cn2cc(-c3cc(F)c4cc(C5CCNCC5)nnc4c3)nc2c(C)n1` [Compound 116, 7-(6,8-dimethylimidazo[1,2-a]pyrazin-2-yl)-5-fluoro-3-(piperidin-4-yl)cinnoline], the IC50 lay within 100 to 500 nM.

In turn, `Cc1cn2nc(-c3cc(F)c4cc(C5CCCNC5)nnc4c3)cc(C)c2n1` (stereo not drawn) [Compound 216, 7-(2,8-dimethylimidazo[1,2-b]pyridazin-6-yl)-5-fluoro-3-(piperidin-3-yl)cinnoline] showed an IC50 of at most 100 nM.

`Cc1cc2oc(-c3cc(F)c4cc(C5CCNCC5)nnc4c3)nc2c(C)n1` [Compound 137, 7-(4,6-dimethyl[1,3]oxazolo[4,5-c]pyridin-2-yl)-5-fluoro-3-(piperidin-4-yl)cinnoline] returned an IC50 of at most 100 nM.

In turn, `Cc1cn2nc(-c3cc(F)c4cc(C5CCN(C)CC5)nnc4c3)cc(C#N)c2n1` [Compound 176, 6-[5-fluoro-3-(1-methylpiperidin-4-yl)cinnolin-7-yl]-2-methylimidazo[1,2-b]pyridazine-8-carbonitrile] had an IC50 of at most 100 nM.

`Cc1cn2cc(-c3cc(F)c4cc(C5CCNCC5)nnc4c3)ccc2n1` [Compound 210, 5-fluoro-7-(2-methylimidazo[1,2-a]pyridin-6-yl)-3-(piperidin-4-yl)cinnoline] gave an IC50 of at most 100 nM.

As for `Cc1cc(-c2ccc3nc(C4CC(C)(C)NC(C)(C)C4)ccc3c2)cc2cn(C)nc12` [Compound 14, 6-(2,7-dimethyl-2H-indazol-5-yl)-2-(2,2,6,6-tetramethylpiperidin-4-yl)quinoline], the IC50 lay within 100 to 500 nM.

`Cc1nc2c(C)cc(-c3cc(F)c4nc(C5CCNCC5)nnc4c3)cc2[nH]1` [Compound 63, 7-(2,4-dimethyl-1H-benzimidazol-6-yl)-5-fluoro-3-(piperidin-4-yl)-1,2,4-benzotriazine] gave an IC50 of at most 100 nM.
